# Assay results published in patent US20130012709A1, “NOVEL INHIBITORS OF STEAROYL-CoA-DESATURASE-1 AND THEIR USES” (CENTRE NATIONAL DE LA RECHERCHE SCIENTIFIQUE, priority 2009, published 2013).
# Like-named read-outs stand apart in the source and are kept apart here.
# Experiments:
# LNCaP cells [1] = assay: Proliferation by BrDU incorporation; assay type: cell-based, human; conditions: 25 μM, 48 h of treatment
# Protocol: (§2) LNCaP and C4-2 cells grown on coverslips were incubated for 4 hours with BrdU (100 μM final) at 24 hours and 48 hours following SCD-1 knock-down. Cells were then fixed and permeabilized with cold methanol for 10 min at −20° C. After 3 washes with PBS, DNA was denaturated with 4NHCL for 10 min at RT, and cells were incubated with blocking buffer (PBS-1% BSA). BrDU was then detected with anti-BrDU monoclonal antibody 1:50 (Dako, Carpinteria, Calif.) for 1 hour at 37° C. After 3 washes with PBS, cells were incubated with an FITC-conjugated anti-mouse secondary antibody 1:150 (Jackson Immunoresearch) for 30 min at 37° C., and slides were mounted in mowiol.
# C4-2 cells [2] = assay: Proliferation by BrDU incorporation; conditions: 25 μM, 48 h of treatment
# Protocol: as §2
# C4-2 cells [3] = assay: MTT assay (cell viability); conditions: 48 h
# Protocol: (§3) After 48 h, medium was removed and 250 μl of a 5 mg/ml MTT (Sigma, St Louis, Mo., USA) solution in PBS was added to each well. After 4 h incubation at 37° C., the MTT solution was removed, 200 μl of DMSO (Sigma) was added and cells were incubated for 5 min. Two hundred microliters of each samples was distributed in 96-well plates for an optical density reading at 540 nm.
# C4-2 cells [4] = system: C4-2 cells
# Protocol: as §3
# LNCaP cells [5] = assay: Flow cytometry analysis of cell cycle; assay type: cell-based, human; conditions: 25 μM, 48 h; untreated cells 20
# Protocol: (§1) Cells were then rinsed in PBS, pelleted at 400 g for 5 min and maintained on ice for 20 min before resuspension in a […] propidium iodide (Sigma) solution. Cells were kept overnight at 4° C. and the percentages of cells in G1, S and G2-M phases of the cell cycle were measured with a Coulter Epics XL™ flow cytometer (Becton Dickinson) using 488-nm laser excitation. For apoptosis experiment, MEFs were treated with the tested compound at 25 μM for 24 h, then rinced in PBS, pelleted at 400 g for 5 min and stained with annexinV-FITC (Roche Diagnostics, Meylan, France) for 15 min at 4° C. The percentage of annexin positive cells was immediately analysed using 488-nm laser excitation.
# C4-2 cells [6] = assay: Flow cytometry analysis of cell cycle; assay type: cell-based, human; conditions: 25 μM, 48 h; untreated cells 22
# Protocol: as §1
SMILES,% Inhibition of proliferation at 25 μM (BrDU) on LNCaP (LNCaP cells [1]),% Inhibition of proliferation at 25 μM (BrDU) on C4-2 (C4-2 cells [2]),also measured
"COc1ccc(Br)c(C(=O)N2CCN(S(=O)(=O)c3ccc(Cl)cc3)CC2)c1 [Example 18, 1N-[(2-bromo-5-methoxybenzoyl)]-4N-[(4-chlorophenyl)sulfonyl]piperazine]",49.7%,38.1 ± 7.1%,Viable C4-2 cells at 25 μM (% of control) (C4-2 cells [3]): 59 % of control
"COc1ccc(Br)c(C(=O)N2CCN(S(=O)(=O)c3cccc(F)c3)CC2)c1 [Example 15, 1N-[(2-bromo-5-methoxybenzoyl)]-4N-[(3-fluorophenyl)sulfonyl]piperazine]",0%,35.7 ± 6%,Viable C4-2 cells at 25 μM (% of control) (C4-2 cells [4]): 83 % of control
"COc1cccc(C(=O)N2CCN(S(=O)(=O)c3ccc(F)cc3F)CC2)c1 [Example 31, 1N-[(3-methoxybenzoyl)]-4-N-[(2,4-difluorophenyl)sulfonyl]piperazine]",,25.3 ± 6.1%,
"COc1ccccc1C(=O)N1CCN(S(=O)(=O)c2ccc(F)cc2F)CC1 [Example 32, 1N-[(2-methoxybenzoyl)]-4-N-[(2,4-difluorophenyl)sulfonyl]piperazine]",,0%,
"O=C(c1ccsc1)N1CCN(S(=O)(=O)c2ccc(F)cc2F)CC1 [Example 36, 1N-[3-thiophenecarbonyl]-4-N-[(2,4-difluorophenyl)sulfonyl]piperazine]",,40 ± 7.6%,
"COc1ccc(Br)c(C(=O)N2CCN(S(=O)(=O)c3ccc(C)cc3)CC2)c1 [Example 10, 1N-[(2-bromo-5-methoxybenzoyl)]-4N-[(4-methylphenyl)sulfonyl]piperazine]",0%,0%,Viable C4-2 cells at 25 μM (% of control) (C4-2 cells [3]): 59 % of control
"O=C(c1cscn1)N1CCN(S(=O)(=O)c2ccc(F)cc2F)CC1 [Example 37, 1N-[4-thiazolecarbonyl]-4-N-[(2,4-difluorophenyl)sulfonyl]piperazine]",,37 ± 7.8%,
"COc1ccc(Br)c(C(=O)N2CCN(S(=O)(=O)c3ccc([N+](=O)[O-])cc3)CC2)c1 [Example 6, 1N-[(2-bromo-5-methoxybenzoyl)]-4N-[(4-nitrophenyl)sulfonyl]piperazine]",,0%,% LNCaP cells in phase S at 25 μM (LNCaP cells [5]): 15%; % C4-2 cells in phase S at 25 μM (C4-2 cells [6]): 19.8%; Viable C4-2 cells at 25 μM (% of control) (C4-2 cells [3]): 42 % of control
"COc1ccc(Br)c(C(=O)N2CCN(S(=O)(=O)c3ccoc3)CC2)c1 [Example 24, 1N-[(2-bromo-5-methoxybenzoyl)]-4N-[(3-furan)sulfonyl]piperazine]",,28.4 ± 9.8%,
COc1ccc(Br)c(C(=O)N2CCN(S(=O)(=O)c3ccc(OC(F)(F)F)cc3)CC2)c1 [Example 11],45.5%,63 ± 4.1%,Viable C4-2 cells at 25 μM (% of control) (C4-2 cells [4]): 74 % of control
"COc1ccc(C(=O)N2CCN(S(=O)(=O)c3ccc(F)cc3F)CC2)cc1Br [Example 26, 1N-[(3-bromo-4-methoxybenzoyl)]-4-N-[(2,4-difluorophenyl)sulfonyl]piperazine]",,68.2 ± 18.2%,
"COc1ccc(Br)c(C(=O)N2CCN(S(=O)(=O)c3c(F)cccc3F)CC2)c1 [Example 14, 1N-[(2-bromo-5-methoxybenzoyl)]-4N-[(2,6-difluorophenyl)sulfonyl]piperazine]",,0%,
"COc1ccc(Br)c(C(=O)N2CCN(S(=O)(=O)c3ccc(C(F)(F)F)cc3)CC2)c1 [Example 3, 1N-[(2-bromo-5-methoxybenzoyl)]-4N-[(4-trifluoromethylphenyl)sulfonyl]piperazine]",,65.8 ± 6.4%,% LNCaP cells in phase S at 25 μM (LNCaP cells [5]): 10%; % C4-2 cells in phase S at 25 μM (C4-2 cells [6]): 2.8%
"COc1ccc(Br)c(C(=O)N2CCN(S(=O)(=O)c3ccc(C(C)=O)cc3)CC2)c1 [Example 4, 1N-[(2-bromo-5-methoxybenzoyl)]-4N-[(4-acetylphenyl)sulfonyl]piperazine]",,36 ± 5.4%,% LNCaP cells in phase S at 25 μM (LNCaP cells [5]): 18%; % C4-2 cells in phase S at 25 μM (C4-2 cells [6]): 19.7%
"COc1ccc(Br)c(C(=O)N2CCN(S(=O)(=O)c3cccc(C(F)(F)F)c3)CC2)c1 [Example 7, 1N-[(2-bromo-5-methoxybenzoyl)]-4N-[(3-trifluoromethylphenyl)sulfonyl]piperazine]",16.7%,31.6 ± 7.61%,Viable C4-2 cells at 25 μM (% of control) (C4-2 cells [4]): 44 % of control
"COc1ccc(Br)c(C(=O)N2CCN(S(=O)(=O)c3cn(C)cn3)CC2)c1 [Example 25, 1N-[(2-bromo-5-methoxybenzoyl)]-4N-[(1-methyl-1H-imidazole)sulfonyl]piperazine]",,0%,
"CCCc1ccc(S(=O)(=O)N2CCN(C(=O)c3cc(OC)ccc3Br)CC2)cc1 [Example 5, 1N-[(2-bromo-5-methoxybenzoyl)]-4N-[(4-propylphenyl)sulfonyl]piperazine]",,26.8 ± 20.2%,% LNCaP cells in phase S at 25 μM (LNCaP cells [5]): 3%; % C4-2 cells in phase S at 25 μM (C4-2 cells [6]): 10.7%
"COc1ccc(S(=O)(=O)N2CCN(C(=O)c3cc(OC)ccc3Br)CC2)cc1 [Example 19, 1N-[(2-bromo-5-methoxybenzoyl)]-4N-[(4-methoxyphenyl)sulfonyl]piperazine]",,22.4 ± 7.7%,
"COc1ccc(Br)c(C(=O)N2CCN(S(=O)(=O)c3ccco3)CC2)c1 [Example 23, 1N-[(2-bromo-5-methoxybenzoyl)]-4N-[(2-furan)sulfonyl]piperazine]",,48 ± 14%,
"COc1ccc(Br)c(C(=O)N2CCN(S(=O)(=O)c3ccccc3C(F)(F)F)CC2)c1 [Example 8, 1N-[(2-bromo-5-methoxybenzoyl)]-4N-[(2-trifluoromethylphenyl)sulfonyl]piperazine]",40.1%,84.4 ± 8.5%,Viable C4-2 cells at 25 μM (% of control) (C4-2 cells [4]): 73 % of control
"COc1ccc(Br)c(C(=O)N2CCN(S(=O)(=O)c3ccc(C(C)C)cc3)CC2)c1 [Example 16, 1N-[(2-bromo-5-methoxybenzoyl)]-4N-[(4-isopropylphenyl)sulfonyl]piperazine]",,75.4 ± 10.8%,
"COc1ccc(Br)c(C(=O)N2CCN(S(=O)(=O)Cc3ccccc3)CC2)c1 [Example 20, 1N-[(2-bromo-5-methoxybenzoyl)]-4N-[(phenylmethane)sulfonyl]piperazine]",16.8%,46.3 ± 11.7%,Viable C4-2 cells at 25 μM (% of control) (C4-2 cells [3]): 37 % of control
"COc1ccc(Br)c(C(=O)N2CCN(S(=O)(=O)c3ccccc3)CC2)c1 [Example 1, 1N-[(2-bromo-5-methoxybenzoyl)]-4N-[(phenyl)sulfonyl]piperazine]",,22.7 ± 11.2%,% LNCaP cells in phase S at 25 μM (LNCaP cells [5]): 18%; % C4-2 cells in phase S at 25 μM (C4-2 cells [6]): 20.1%; Viable C4-2 cells at 25 μM (% of control) (C4-2 cells [3]): 45 % of control
"COc1ccc(Br)cc1C(=O)N1CCN(S(=O)(=O)c2ccc(F)cc2F)CC1 [Example 27, 1N-[(2-methoxy-5-bromobenzoyl)]-4-N-[(2,4-difluorophenyl)sulfonyl]piperazine]",,26.2 ± 6.2%,
"COc1ccc(Br)c(C(=O)N2CCN(S(=O)(=O)c3cccs3)CC2)c1 [Example 21, 1N-[(2-bromo-5-methoxybenzoyl)]-4N-[(2-thiophene)sulfonyl]piperazine]",,58.3 ± 19.9%,
"COc1ccc(Br)c(C(=O)N2CCN(S(=O)(=O)c3ccc(Br)cc3)CC2)c1 [Example 17, 1N-[(2-bromo-5-methoxybenzoyl)]-4N-[(4-bromophenyl)sulfonyl]piperazine]",,67.6 ± 8.2%,
"COc1ccc(Br)c(C(=O)N2CCN(S(=O)(=O)c3ccc(F)cc3F)CC2)c1 [Example 12, 1N-[(2-bromo-5-methoxybenzoyl)]-4N-[(2, 4 difluorophenyl)sulfonyl]piperazine]",60.6%,55.2 ± 0.5%,Viable C4-2 cells at 25 μM (% of control) (C4-2 cells [4]): 70 % of control
"COc1ccc(Br)c(C(=O)N2CCN(S(=O)(=O)c3ccc(-c4ccccc4)cc3)CC2)c1 [Example 9, 1N-[(2-bromo-5-methoxybenzoyl)]-4N-[(4-biphenyl)sulfonyl]piperazine]",48.3%,60.5 ± 5.7%,Viable C4-2 cells at 25 μM (% of control) (C4-2 cells [3]): 90 % of control
"COc1c(Br)cccc1C(=O)N1CCN(S(=O)(=O)c2ccc(F)cc2F)CC1 [Example 28, 1N-[(2-methoxy-3-bromobenzoyl)]-4-N-[(2,4-difluorophenyl)sulfonyl]piperazine]",,55.4 ± 14%,
"COc1ccc(Br)c(C(=O)N2CCN(S(=O)(=O)c3ccsc3)CC2)c1 [Example 22, 1N-[(2-bromo-5-methoxybenzoyl)]-4N-[(3-thiophene)sulfonyl]piperazine]",,28 ± 2.6%,
